Experimental data from ChEMBL document CHEMBL1152854, “Synthesis, characterization and in vitro antibacterial activity of new steroidal 5-en-3-oxazolo and thiazoloquinoxaline” (Eur J Med Chem, 2008).
Converted amounts (≈) assume the structure as drawn.

Key:
Staphylococcus aureus [1] = assay: Antimicrobial activity against Staphylococcus aureus at 200 ug/mL after 24 hrs by disk diffusion method; assay type: functional; settings: read-out: IZ
Streptococcus pyogenes [2] = assay: Antimicrobial activity against Streptococcus pyogenes after 24 hrs by broth microdilution method; assay type: functional, organism-based
Escherichia coli [3] = assay: Antimicrobial activity against Escherichia coli at 200 ug/mL after 24 hrs by disk diffusion method; assay type: functional; settings: read-out: IZ
Salmonella typhimurium [4] = assay: Antimicrobial activity against Salmonella Typhimurium at 200 ug/mL after 24 hrs by disk diffusion method; assay type: functional, Salmonella enterica subsp. enterica serovar Typhimurium; settings: Salmonella enterica, read-out: IZ
Escherichia coli [5] = assay: Antimicrobial activity against Escherichia coli after 24 hrs by broth microdilution method; assay type: functional, organism-based
Staphylococcus aureus [6] = assay: Antimicrobial activity against Staphylococcus aureus after 24 hrs by broth microdilution method; assay type: functional, organism-based
Salmonella typhimurium [7] = assay: Antimicrobial activity against Salmonella Typhimurium after 24 hrs by broth microdilution method; assay type: functional, organism-based, Salmonella enterica subsp. enterica serovar Typhimurium; settings: Salmonella enterica
Streptococcus pyogenes [8] = assay: Antimicrobial activity against Streptococcus pyogenes at 200 ug/mL after 24 hrs by disk diffusion method; assay type: functional; settings: read-out: IZ

| Compound | zone of inhibition at 200 µg/mL (Staphylococcus aureus [1]) [mm] | IC50 (Streptococcus pyogenes [2]) [µg/mL] | MIC (Streptococcus pyogenes [2]) [µg/mL] | zone of inhibition at 200 µg/mL (Escherichia coli [3]) [mm] | zone of inhibition at 200 µg/mL (Salmonella typhimurium [4]) [mm] | IC50 (Escherichia coli [5]) [µg/mL] | MIC (Escherichia coli [5]) [µg/mL] | IC50 (Staphylococcus aureus [6]) [µg/mL] | MIC (Staphylococcus aureus [6]) [µg/mL] | IC50 (Salmonella typhimurium [7]) [µg/mL] | MIC (Salmonella typhimurium [7]) [µg/mL] | zone of inhibition at 200 µg/mL (Streptococcus pyogenes [8]) [mm] |
| --- | --- | --- | --- | --- | --- | --- | --- | --- | --- | --- | --- | --- |
| CC(C)CCC[C@@H](C)[C@H]1CC[C@H]2[C@@H]3CC=C4C/C(=N/Nc5nc6nc7ccccc7nc6o5)CC[C@]4(C)[C@H]3CC[C@]12C | 22.5 | 0.54 (≈ 0.951 µM) | 0.78 (≈ 1.37 µM) | 23.6 | 24.5 | 0.26 (≈ 0.458 µM) | 0.39 (≈ 0.687 µM) | 0.48 (≈ 0.845 µM) | 0.78 (≈ 1.37 µM) | 0.48 (≈ 0.845 µM) | 0.78 (≈ 1.37 µM) | 23.4 |
| CC(C)CCC[C@@H](C)[C@H]1CC[C@H]2[C@@H]3CC=C4C/C(=N/NC(N)=O)CC[C@]4(C)[C@H]3CC[C@]12C | 14.6 | 3.68 (≈ 8.33 µM) | 6.25 (≈ 14.1 µM) | 14.2 | 15.5 | 1.88 (≈ 4.26 µM) | 3.12 (≈ 7.06 µM) | 3.65 (≈ 8.26 µM) | 6.25 (≈ 14.1 µM) | 1.94 (≈ 4.39 µM) | 3.12 (≈ 7.06 µM) | 13.4 |
| CC(C)CCC[C@@H](C)[C@H]1CC[C@H]2[C@@H]3CC=C4C/C(=N/NC(N)=S)CC[C@]4(C)[C@H]3CC[C@]12C | 15.2 | 3.66 (≈ 8 µM) | 6.25 (≈ 13.7 µM) | 15.5 | 14.5 | 3.68 (≈ 8.04 µM) | 6.25 (≈ 13.7 µM) | 3.68 (≈ 8.04 µM) | 6.25 (≈ 13.7 µM) | 3.72 (≈ 8.13 µM) | 6.25 (≈ 13.7 µM) | 13.5 |
| CC(C)CCC[C@@H](C)[C@H]1CC[C@H]2[C@@H]3CC=C4C/C(=N/Nc5nc6nc7ccccc7nc6s5)CC[C@]4(C)[C@H]3CC[C@]12C | 21.2 | 0.52 (≈ 0.891 µM) | 0.78 (≈ 1.34 µM) | 21.4 | 20.4 | 0.24 (≈ 0.411 µM) | 0.39 (≈ 0.668 µM) | 0.54 (≈ 0.925 µM) | 0.78 (≈ 1.34 µM) | 0.28 (≈ 0.48 µM) | 0.39 (≈ 0.668 µM) | 23.2 |
| CC1(C)S[C@@H]2[C@H](NC(=O)[C@H](N)c3ccc(O)cc3)C(=O)N2[C@H]1C(=O)O [AMOXICILLIN] | 17 | 1.8 (≈ 4.93 µM) | 3.12 (≈ 8.54 µM) | 20 | 17.2 | 1.9 (≈ 5.2 µM) | 3.12 (≈ 8.54 µM) | 1.82 (≈ 4.98 µM) | 3.12 (≈ 8.54 µM) | 1.85 (≈ 5.06 µM) | 3.12 (≈ 8.54 µM) | 18.2 |
| CC(C)CCC[C@@H](C)[C@H]1CC[C@H]2[C@@H]3CC=C4C[C@@H](O)CC[C@]4(C)[C@H]3CC[C@]12C [CHOLESTEROL] | 9.2 | – | – | 9 | 8.2 | – | – | – | – | – | – | 7.8 |
